What was measured:
[1] = De Marchi et al., Journal of Pharmaceutical Sciences 1971 60 (11); cited from earlier work
female NMRI mice = test: 6 Hz corneal stimulation psychomotor seizure model (anticonvulsant properties); format: in vivo; details: Mus musculus, 32 mA, 3 s corneal stimulation, N=8/group, read-out: ED50 (dose that would give a 50% protection from seizures)
Method: The evaluation of the anticonvulsant properties was carried out in female NMRI mice (20-25 g, Taconic, Denmark). The mice were housed in groups (8 per cage according to weight) with food and water available ad libitum The environment was temperature (20±2° C.) and humidity (55±15%) controlled, and consisted of a 12:12 h light-dark cycle (lights on 06:00 h). The experiments were performed according to the Danish Committee for Experiments on Animals. Psychomotor seizures were induced via corneal stimulation (6 Hz, 0.2 ms rectangular pulses at 32 mA for 3 s) using a Grass S48 stimulator, constant current unit (CCU1) and isolation unit (SIU5), all driven by a stimulus generator (Master-8, AMPI, Israel).
The pads of the corneal stimulator were soaked in 0.9% saline. The mice were restrained during corneal stimulation and released immediately after and observed for the presence or absence of seizure activity.
The duration of any of these seizure variables is 10-75 seconds. In the presence of any of the seizure variables the mice was labelled 0% protection, and if none of the above, the mice was labelled 100% protection.
For screening purposes, the test compound was tested at 1 dose at 1 time-point. In the case of protection of 3 or more out of 8 mice, the compound were further evaluated in dose response (N=8/group). […]

## NC(=O)CN1C(=O)OCc2ccccc21 [2-(2-oxo-4H-benzo[d][1,3]oxazin-1-yl)-acetamide]
[1]
  anticonvulsant activity: biologically inactive

## NC(=O)CN1C(=O)OCc2cc(Br)ccc21 [Compound 1, 2-(6-bromo-2-oxo-4H-3,1-benzoxazin-1-yl)acetamide]
Female NMRI mice
  ED50: 13 mg/kg
other
  melting point: 253.4 to 254.3 °C
